Earlier results in patent US5478810A, “Peptide amides, processes for the preparation thereof and agents containing these as fibrin/thrombin clotting inhibitors” (Behringwerke Aktiengesellschaft, priority 1990, dated 1995).
No end group written: not given here. *: point of attachment. 4‑hydroxypiperidide = C-terminal 4-hydroxypiperidide, OC1CCN(*)CC1; 3‑methylpiperidide = C-terminal 3-methylpiperidide

Test system: plasma clotting
Details: relative to GPRP = 1

Row | Substance | relative activity (amount of plasma which is inhibited with a defined amount of inhibitor)
1 | GPRP 3-methylpiperidide (GPRP-{3‑methylpiperidide}) [known peptide derivative presented at the XIth American Symposium on Peptides] | 1.29
2 | GPRP 4-hydroxypiperidide (GPRP-{4‑hydroxypiperidide}) [known peptide derivative presented at the XIth American Symposium on Peptides] | 1.2
3 | GPRP-NH2 | 3.52
